Test results taken from ChEMBL document CHEMBL5331084, “Structure-based lead optimization of peptide-based vinyl methyl ketones as SARS-CoV-2 main protease inhibitors” (Eur J Med Chem, 2023).
pEC50: −log10 of the molar value.

System: SARS-CoV-2
Assay: microbe, parasite or virus in culture
Details: Severe acute respiratory syndrome coronavirus 2, Munich 929, Huh-7

**Q.** With `CCCC[C@H](NC(=O)OCc1ccccc1)C(=O)N[C@H](/C=C/C(C)=O)C[C@@H]1CCNC1=O` as the compound, how does the pEC50 read?
**A.** 4.73

**Q.** How did the pEC50 turn out when `CC(=O)/C=C/[C@H](C[C@@H]1CCNC1=O)NC(=O)[C@H](CC1CC1)NC(=O)OCc1ccccc1` was run?
**A.** 5.82

**Q.** With `CC(=O)/C=C/[C@H](C[C@@H]1CCNC1=O)NC(=O)[C@H](CC1CCCCC1)NC(=O)OCc1ccccc1` as the compound, how does the pEC50 read?
**A.** 5.74
